According to article PMC12668308, “A Novel Antimalarial Agent that Inhibits Protein Synthesis in Plasmodium falciparum” (Angewandte Chemie (International Ed. in English), 2025):

Experiments:
Experiment in all cases: iSPP profiling, P. falciparum lysate
Assay type in all cases: binding, Plasmodium falciparum
Conditions in all cases: 100 µM compound 34
[1] = system: Dual specificity protein phosphatase (W7KAW5)
Method: (§1) P. falciparum NF54 lysates were extracted as described in ^[26^] . The parasite asynchronous culture was extracted once 3-5% parasitemia was reached. Saponin lysis was done as described in 2.2.10. Once the parasite pellet was obtained, 2.5 volumes of ice-cold lysis buffer (50 mM Tris/HCl pH 7.5 (Avantor), 5% glycerol (Sigma-Aldrich), 150 mM NaCl (Carl Roth), 1.5 mM MgCl2 (Sigma-Aldrich), 1 mM DTT (Carl Roth), 0.8% IGEPAL CA-630 (Sigma-Aldrich), 1X Halt Protease and Phosphatase Inhibitor-Cocktails EDTA-free (Thermo Fisher Scientific)) was added to the parasite pellet. The lysate solution was subjected to three cycles of flash freeze-thaw with liquid nitrogen and ddH2O at RT. The lysates were centrifuged at 20,000 g for 20 minutes at 4 °C. The soluble protein fraction (supernatant) was collected and the protein content was quantified using the BCA assay (Pierce™ BCA Protein Assay Kit, Thermo Fisher Scientific). The lysate was stored at -80 °C until further use.
(§2) The P. falciparum lysate was thawed on ice and diluted to 0.8 mg/mL. The lysate was aliquoted, and each aliquot was incubated with either a vehicle control (DMSO), 34 (dissolved in DMSO), or varying concentrations of 31 (dissolved in DMSO) at 0.01 µM, 0.1 µM, 10 µM, 50 µM, and 100 µM. Subsequently, the samples were incubated at room temperature for 30 minutes using a rotating mixer. After distribution into a 96-well plate, the samples were treated with increasing concentrations of A.E.A. (v/v) ranging from 14% to 28% (14, 16, 18, 20, 22, 24, 26, and 28%). Following a 20-minute incubation at 37°C with shaking at 750 rpm, the samples were centrifuged at 4400 g for 35 minutes to remove precipitated proteins. The soluble fractions were then pooled in equal volumes into a single sample using the Bravo Automated Liquid Handling Platform. The pooled samples were subsequently prepared for LC-MS/MS analysis.
(§3) The raw LFQ-DIA intensity values of biological replicates across all conditions were normalized to the median abundance using Excel. The normalized values were then log2 transformed in Perseus (v2.0.10.0).^[58^] Missing values were imputed from a normal distribution (width 0.3, down shift 1.5), and p-values were obtained using a two-sample t-test over replicates with a permutation-based false discovery rate correction (FDR 0.05). Volcano plots were generated in RStudio using the EnhancedVolcano package (v. 1.20.0), ^[59^] plotting proteins by statistical significance (y-axis: –Log10 p-value) versus the magnitude of change (x-axis: log2 fold change of protein intensities for each compound condition relative to the vehicle control). The heatmap was generated in Perseus (v2.0.10.0). Dose-dependent curves were generated using normalized protein intensity values, expressed as a ratio to the vehicle control. Plots were created in GraphPad Prism (v8.3.0) using a nonlinear regression model.

[2] = system: DNA repair and recombination protein RAD54 (W7K6H8)
Method: as §1, §2, §3

[3] = system: RRM domain-containing protein (W7KAG3)
Method: as §1, §2, §3

[4] = system: PCI domain-containing protein (W7JUC8)
Method: as §1, §2, §3

[5] = system: Stevor (W7K9U2)
Method: as §1, §2, §3

[6] = system: Uncharacterized protein (W7K0G9)
Method: as §1, §2, §3

[7] = system: Small nuclear ribonucleoprotein Sm D1 (W7K576)
Method: as §1, §2, §3

[8] = system: Uncharacterized protein (W7KMZ2)
Method: as §1, §2, §3

[9] = system: WD repeat-containing protein 82 (W7K1H5)
Method: as §1, §2, §3

[10] = system: Uncharacterized protein (W7KAK7)
Method: as §1, §2, §3

[11] = system: Ribosome associated membrane protein RAMP4 (W7KMX9)
Method: as §1, §2, §3

[12] = system: Uncharacterized protein (W7KDE4)
Method: as §1, §2, §3

[13] = system: 2-C-methyl-D-erythritol 4-phosphate cytidylyltransferase (W7KNE8)
Method: as §1, §2, §3

[14] = system: Protein RFT1 homolog (W7JM37)
Method: as §1, §2, §3

[15] = system: Uncharacterized protein (W7KBT1)
Method: as §1, §2, §3

[16] = system: Erythrocyte membrane protein 1 (W7JQ66;W7K7Z8;W7KA08;W7KI56;W7KJ57)
Method: as §1, §2, §3

[17] = system: Plasmodium RESA N-terminal domain-containing protein (W7KFM4)
Method: as §1, §2, §3

[18] = system: Pre-mRNA branch site protein p14 (Fragment) (W7JRR7)
Method: as §1, §2, §3

[19] = system: Uncharacterized protein (W7JZL0)
Method: as §1, §2, §3

[20] = system: Antigen UB05 (W7JRY1)
Method: as §1, §2, §3

[21] = system: Ubiquitin-like protein nedd8-like (W7JPX7)
Method: as §1, §2, §3

For `O=C(Nc1cc(CN2CCOCC2)ccc1F)c1cccc(Oc2cc(C(F)(F)F)ccn2)c1` [Compound 34, N-(2-Fluoro-5-(morpholinomethyl)phenyl)-3-((4-(trifluoromethyl)pyridin-2-yl)oxy)benzamide], the log2FC [1] was -0.5678, the log2FC [2] was -0.7564 and the log2FC [3] was 0.4449. For the same compound, the log2FC [4] was -0.3885, the log2FC [5] was 0.3642 and the log2FC [6] was -0.3881. The log2FC [7] was 0.401, the log2FC [8] was 0.3762 and the log2FC [9] was -0.6516. It also gave a log2FC [10] of -0.4093, a log2FC [11] of 0.4453 and a log2FC [12] of 0.5097. The log2FC [13] was -1.336, the log2FC [14] was -0.6689 and the log2FC [15] was 0.318. The log2FC [16] was 0.3804, the log2FC [17] was 0.3623 and the log2FC [18] was 0.3601. For the same compound, the log2FC [19] was -1.173, the log2FC [20] was 0.5651 and the log2FC [21] was 0.3658.
